Peptide text beside a SMILES is read from it. * marks the point of attachment. Cbz = O=C(OCc1ccccc1)*

The test system of test [1] is sumoylated TFAP2A in BT549 cells. Nature of the test: Sumoylation of TFAP2A in BT549 cells with peroxide / MG-132. It is filed as cell-based, human. The protocol: FIG. 15A-15B. Sumoylated TFAP2A in Basal Cells Induced with Peroxide. Sumoylation of TFAP2A was analyzed in the basal cell line BT549 with and without treatment with peroxide. FIG. 15A. BT549 cells co-transfected with vectors for TFAP2A and either SUMO-1, -2 or -3 and treated without or with peroxide, as indicated. […] Experiment in A was performed in the absence of the proteasome inhibitor MG-132. FIG. 15B. Similar experiments performed with MG-132 treatment either without or with peroxide.
Sumoylation in vitro was done using SUMOlink™ SUMO-1 Kit and SUMOlink™ SUMO-2/3 Kit (Carlsbad). SUMO plasmids and pcDNA3.1-TFAP2A or K10R mutant were used for in vitro protein production. MCF-7 were transfected for 48 hours with […] SUMO expressing plasmids (Feng et al., 2013) that were kindly provided by Dr Xiaolu Yang (University of Pennsylvania). As indicated in some experiments, the proteasome inhibitor MG132 was added as described (Chu and Yang, 2011).

Test [2] has as its system FREM2 and RET expression. The test can be described thus: Estrogen responsiveness of FREM2 expression, Tamoxifen treatment. The test is classed as cell-based. The settings on record: FIG. 11E.

In the case of `CC(C)C[C@@H](C=O)NC(=O)[C@H](CC(C)C)NC(=O)[C@H](CC(C)C)NC(=O)OCc1ccccc1` [MG-132] (Cbz-Leu-Leu-Leu-aldehyde), the “identification of the sumoylated forms of TFAP2A” value in test [1] (BT549 cells, MG-132 treatment without or with peroxide, FIG. 15B) is “enhanced identification”. Turning to `CC/C(=C(\c1ccccc1)c1ccc(OCCN(C)C)cc1)c1ccccc1` [Tamoxifen], in test [2], the FREM2 expression entry is “not estrogen responsive” and the RET expression entry is “appropriately repressed”. With `OO` [peroxide], the “sumoylated TFAP2A” value in test [1] (BT549 cells co-transfected with TFAP2A and SUMO-1, -2 or -3, with vs without peroxide, FIG. 15A) was “Induction”.

For the origin of these results see patent US20160101076A1, “Use of Sumoylation Inhibitors for Treating Cancer” (priority 2013, published 2016).
